Assay results published in patent publication US20050101595A1, “N-containing cycloalkyl-substituted amino-thiazole derivatives and pharmaceutical compositions for inhibiting cell proliferation and methods for their use” (PFIZER INC., priority 2003, published 2005).
Counter-ions that a name gives are not always drawn. Like-named read-outs stand apart in the source and are kept apart here.

Tests used:
[1] = biological target: human CDK4 and genetically truncated (1-264) cyclin D3 (Homo sapiens, UniProt P11802); experiment: Inhibition of CDK4/Cyclin D Retinoblastoma Kinase Activity; assay type: biochemical; conditions: for Ki: apparent Ki, CDK4/truncated cyclin D3, Rb fragment substrate, 25 μM ATP
human CDK4 and genetically truncated (1-264) cyclin D3, sequence (P11802 whole entry, the tested form may be a part): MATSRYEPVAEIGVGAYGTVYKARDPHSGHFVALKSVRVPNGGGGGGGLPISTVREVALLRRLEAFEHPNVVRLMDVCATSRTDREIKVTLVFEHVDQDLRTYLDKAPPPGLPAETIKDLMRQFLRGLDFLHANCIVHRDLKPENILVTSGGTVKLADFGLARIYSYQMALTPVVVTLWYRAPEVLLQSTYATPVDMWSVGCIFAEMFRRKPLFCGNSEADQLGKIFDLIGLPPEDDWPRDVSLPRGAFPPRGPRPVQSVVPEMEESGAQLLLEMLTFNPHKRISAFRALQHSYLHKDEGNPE
human CDK4 and genetically truncated (1-264) cyclin D3, sequence (P30281 1-264 partner): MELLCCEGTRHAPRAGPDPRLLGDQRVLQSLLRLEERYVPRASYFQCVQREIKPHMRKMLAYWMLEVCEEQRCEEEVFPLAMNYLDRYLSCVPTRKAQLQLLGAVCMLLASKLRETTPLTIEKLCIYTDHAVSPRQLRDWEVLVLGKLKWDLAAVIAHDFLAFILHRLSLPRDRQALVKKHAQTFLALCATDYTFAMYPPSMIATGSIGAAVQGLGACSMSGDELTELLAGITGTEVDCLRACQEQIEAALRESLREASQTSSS
Method in brief: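 Apparent Ki values come from competitive or competitive tight-binding inhibition fits of background-corrected 32P/33P incorporation into His-tagged Rb fragment (386-928), captured on nitrocellulose. Reaction: 5 nM insect-cell-expressed human CDK4 with cyclin D3 (1-264), 25 μM ATP, pH 7.4 HEPES, 2% DMSO, 30° C., 20 min, extended to 60 min for tight-binding inhibitors.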

HCT-116 cell line = experiment: Inhibition of cell growth, tetrazolium salt (MTT) assay; assay type: cell-based; conditions: for HCT-116 % Inhibition at 0.25 μM: 0.25 μM compound; for IC50: Homo sapiens, HCT-116, 120 h, MTT, three to five days, read-out: HCT-116 IC50
Method in brief: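 Growth inhibition by MTT reduction at 540 nm (0.2 mg/mL, 4 h at 37° C, formazan dissolved in DMSO), normalized to cells given only 0.5% v/v DMSO. HCT-116 cultures in McCoy's 5A were dosed 4 h post-plating and kept three to five days at 37° C, 5% CO2.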

CDK2/Cyclin A = CDK2/Cyclin A (Homo sapiens, UniProt P24941); experiment: Inhibition of CDK2/Cyclin A Retinoblastoma Kinase Activity; assay type: biochemical; conditions: for Ki: apparent Ki, CDK2/proteolyzed cyclin A, Rb fragment substrate, 25 μM ATP; for CDK2 % Inhibition At 0.03 μM: Table 2
Method in brief: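 Radiometric filter-binding readout of phosphate transfer to an Rb substrate fragment by purified CDK2/truncated cyclin A at 10 or 19 nM. Run at pH 7.4 with 25 μM ATP, 30 °C, 60–75 min, linear rates; background without enzyme subtracted, Ki from competitive-inhibition models.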

[2] = 0.1 μM compound, HCT-116, Table 4

## Nc1nc(NC2CCN(S(=O)(=O)c3cccc(C(=O)O)c3)CC2)sc1C(=O)c1c(F)cccc1F [Example P29]
[1]; 0.03 μM compound, Table 3
  CDK4 % Inhibition at 0.03 μM: 56%
HCT-116 cell line; 0.1 μM compound, HCT-116, Table 3
  HCT-116 % Inhibition at 0.1 μM: 0%
HCT-116 cell line; HCT-116, Table 3
  HCT-116 % Inhibition at 0.25 μM: 21%
CDK2/Cyclin A; 0.03 μM compound, Table 3
  CDK2 % Inhibition at 0.03 μM: 35%

## Nc1nc(NC2CCN(C(=O)COCc3ccccc3)CC2)sc1C(=O)c1c(F)cccc1F [Example Q75]
[1]; 0.03 μM compound, Table 4
  CDK4 % Inhibition at 0.03 μM: 20%
HCT-116 cell line; [2]
  HCT-116 % Inhibition at 0.1 μM: 5%
HCT-116 cell line; HCT-116, Table 4
  HCT-116 % Inhibition at 0.25 μM: 39%
CDK2/Cyclin A; 0.03 μM compound, Table 4
  CDK2 % Inhibition at 0.03 μM: 9%

## CN1CCCC1CCSc1ccc(S(=O)(=O)N2CCC(Nc3nc(N)c(C(=O)c4c(F)cccc4F)s3)CC2)cn1 (centres unmarked) [Example L6, 1-[4-Amino-2-(1-{6-[2-(1-methyl-pyrrolidin-2-yl)-ethylsulfanyl]-pyridine-3-sulfonyl}-piperidin-4-ylamino)-thiazol-5-yl]-1-(2,6-difluoro-phenyl)-methanone Dihydrochloride.]
[1]
  Ki: 0.95 nM
HCT-116 cell line; first HCT-116 column (c4)
  IC50: 75 nM
HCT-116 cell line; second HCT-116 column (c5)
  IC50: 300 nM
CDK2/Cyclin A
  Ki: 1.5 nM

## Nc1nc(NC2CCN(C(=O)[C@H](Cc3ccccc3)NS(=O)(=O)c3cccc4ccccc34)CC2)sc1C(=O)c1c(F)cccc1F [Example R73]
[1]; at 0.03 μM
  CDK4 % Inhibition at 0.03 μM: 19%
HCT-116 cell line; HCT-116 cells, at 0.1 μM
  HCT-116 % Inhibition at 0.1 μM: 4%
HCT-116 cell line; HCT-116 cells
  HCT-116 5 Inhibition at 0.25 μM: 38
CDK2/Cyclin A; at 0.03 μM
  CDK2 % Inhibition at 0.03 μM: 6%

## Cn1cnc(-c2ccc(S(=O)(=O)N3CCC(Nc4nc(N)c(C(=O)c5c(F)cccc5F)s4)CC3)cc2)c1 [Example F31, 1-(4-Amino-2-{1-[4-(1-methyl-1H-imidazol-4-yl)-benzenesulfonyl]-piperidin-4-ylamino}-thiazol-5-yl)-1-(2,6-difluoro-phenyl)-methanone Trifluoroacetic Acid Salt]
[1]
  Ki: 0.55 nM
HCT-116 cell line; first HCT-116 column (c4)
  IC50: 80 nM
HCT-116 cell line; second HCT-116 column (c5)
  IC50: 300 nM
CDK2/Cyclin A
  Ki: < 1 nM

## Nc1nc(NC2CCN(C(=O)Nc3cccc4ccccc34)CC2)sc1C(=O)c1c(F)cccc1F [Example O35]
[1]; 0.03 μM compound, Table 2
  CDK4 % Inhibition at 0.03 μM: 5%
HCT-116 cell line; HCT-116, Table 2
  HCT-116 % Inhibition at 0.25 μM: 0%
CDK2/Cyclin A; 0.03 μM compound
  CDK2 % Inhibition At 0.03 μM: 29%

## Nc1nc(NC2CCN(S(=O)(=O)c3ccc(CCN4C[C@@H]5[C@@H](N)[C@@H]5C4)nc3)CC2)sc1C(=O)c1c(F)cccc1F [Example N10, [4-Amino-2-(1-{6-[2-(1α, 5β, 6γ-amino-3-aza-bicyclo[3.1.0]hex-3-yl)-ethyl]-pyridine-3-sulfonyl}-piperidin-4-ylamino)-thiazol-5-yl]-(2,6-difluoro-phenyl)-methanone Hydrochloride Salt.]
[1]
  Ki: 0.21 nM
HCT-116 cell line; first HCT-116 column (c4)
  IC50: 380 nM
HCT-116 cell line; second HCT-116 column (c5)
  IC50: 3000 nM
CDK2/Cyclin A
  Ki: 1.3 nM

## Nc1nc(NC2CCN(S(=O)(=O)CCc3ccncc3)CC2)sc1C(=O)c1c(F)cccc1F [Example F27, 1-{4-Amino-2-[1-(2-pyridin-4-yl-ethanesulfonyl)-piperidin-4-ylamino]-thiazol-5-yl}-1-(2,6-difluoro-phenyl)-methanone]
[1]
  Ki: 6.8 nM
HCT-116 cell line; first HCT-116 column (c4)
  IC50: 1000 nM
HCT-116 cell line; second HCT-116 column (c5)
  IC50: 5000 nM
CDK2/Cyclin A
  Ki: 32 nM

## CCOC(=O)c1cccc(NC(=O)N2CCC(Nc3nc(N)c(C(=O)c4c(F)cccc4F)s3)CC2)c1 [Example O46]
[1]; 0.03 μM compound, Table 2
  CDK4 % Inhibition at 0.03 μM: 15%
HCT-116 cell line; HCT-116, Table 2
  HCT-116 % Inhibition at 0.25 μM: 41%
CDK2/Cyclin A; 0.03 μM compound
  CDK2 % Inhibition At 0.03 μM: 29%

## Nc1nc(NC2CCN(C(=O)c3ccccc3Br)CC2)sc1C(=O)c1c(F)cccc1F [Example Q10]
[1]; 0.03 μM compound, Table 4
  CDK4 % Inhibition at 0.03 μM: 57%
HCT-116 cell line; [2]
  HCT-116 % Inhibition at 0.1 μM: 1%
HCT-116 cell line; HCT-116, Table 4
  HCT-116 % Inhibition at 0.25 μM: 42%
CDK2/Cyclin A; 0.03 μM compound, Table 4
  CDK2 % Inhibition at 0.03 μM: 23%

## Cc1onc(-c2ccccc2Cl)c1C(=O)N1CCC(Nc2nc(N)c(C(=O)c3c(F)cccc3F)s2)CC1 [Example R11]
[1]; at 0.03 μM
  CDK4 % Inhibition at 0.03 μM: 49%
HCT-116 cell line; HCT-116 cells, at 0.1 μM
  HCT-116 % Inhibition at 0.1 μM: 0%
HCT-116 cell line; HCT-116 cells
  HCT-116 5 Inhibition at 0.25 μM: 37
CDK2/Cyclin A; at 0.03 μM
  CDK2 % Inhibition at 0.03 μM: 4%

## CC(=O)Nc1ccc(S(=O)(=O)N2CCC(Nc3nc(N)c(C(=O)c4c(F)cccc4F)s3)CC2)cc1 [Example F5, N-(4-{4-[4-Amino-5-(2,6-difluoro-benzoyl)-thiazol-2-ylamino]-piperidine-1-sulfonyl}-phenyl)-acetamide]
[1]
  Ki: 1 nM
HCT-116 cell line; first HCT-116 column (c4)
  IC50: 500 nM
HCT-116 cell line; second HCT-116 column (c5)
  IC50: 1300 nM
CDK2/Cyclin A
  Ki: < 1 nM

## CN(C)CCN(C)c1ccc(S(=O)(=O)N2CCC(Nc3nc(N)c(C(=O)c4c(F)cccc4F)s3)CC2)cn1 [Example G1, Trifluoroacetic Acid Salt]
[1]
  Ki: 0.64 nM
HCT-116 cell line; first HCT-116 column (c4)
  IC50: 120 nM
HCT-116 cell line; second HCT-116 column (c5)
  IC50: > 500 nM
CDK2/Cyclin A
  Ki: 1.4 nM
